In the NIST ThermoML archive (doi:10.1016/j.jct.2007.08.002):
± gives the expanded uncertainty stated by the source.

Test: molar heat capacity at saturation pressure
Details: Crystal 3, Small (less than 1 g) adiabatic calorimetry

NC12CC3CC(CC(C3)C1)C2 [tricyclo(3.3.1.1:3,7)decan-1-amine]
Details | molar heat capacity [J/K/mol]
5.371 K | 0.5825 ± 0.031
5.674 K | 0.6834 ± 0.033
5.933 K | 0.7778 ± 0.035
6.225 K | 0.9013 ± 0.037
6.555 K | 1.05 ± 0.039
6.892 K | 1.221 ± 0.042
7.234 K | 1.413 ± 0.046
7.582 K | 1.615 ± 0.049
7.934 K | 1.847 ± 0.053
8.29 K | 2.095 ± 0.057
8.65 K | 2.364 ± 0.061
9.012 K | 2.653 ± 0.066
9.378 K | 2.953 ± 0.07
9.748 K | 3.269 ± 0.075
10.12 K | 3.61 ± 0.08
10.59 K | 4.072 ± 0.086
11.18 K | 4.667 ± 0.095
11.76 K | 5.291 ± 0.1
12.35 K | 5.952 ± 0.11
12.95 K | 6.634 ± 0.12
13.55 K | 7.353 ± 0.13
14.16 K | 8.092 ± 0.14
14.78 K | 8.863 ± 0.15
15.5 K | 9.794 ± 0.16
16.34 K | 10.89 ± 0.17
17.18 K | 12.01 ± 0.18
18.02 K | 13.1 ± 0.19
18.87 K | 14.19 ± 0.2
19.72 K | 15.29 ± 0.21
20.86 K | 16.74 ± 0.22
22.27 K | 18.51 ± 0.22
23.71 K | 20.25 ± 0.23
25.14 K | 21.91 ± 0.24
26.57 K | 23.5 ± 0.24
28.24 K | 25.24 ± 0.24
29.96 K | 26.91 ± 0.23
31.58 K | 28.39 ± 0.24
33.36 K | 29.89 ± 0.25
35.14 K | 31.32 ± 0.26
36.93 K | 32.63 ± 0.27
38.72 K | 33.88 ± 0.27
40.51 K | 35.04 ± 0.27
42.4 K | 36.18 ± 0.28
44.38 K | 37.34 ± 0.29
46.37 K | 38.43 ± 0.29
48.36 K | 39.47 ± 0.3
50.35 K | 40.45 ± 0.3
52.35 K | 41.44 ± 0.31
54.34 K | 42.38 ± 0.32
56.34 K | 43.3 ± 0.32
58.35 K | 44.2 ± 0.32
60.36 K | 45.16 ± 0.32
62.36 K | 46.1 ± 0.33
64.37 K | 46.99 ± 0.33
66.38 K | 47.92 ± 0.34
68.39 K | 48.83 ± 0.34
70.41 K | 49.75 ± 0.35
72.42 K | 50.71 ± 0.36
74.44 K | 51.65 ± 0.36
76.46 K | 52.68 ± 0.37
78.49 K | 53.68 ± 0.37
78.62 K | 53.84 ± 0.37
80.52 K | 54.78 ± 0.37
80.69 K | 54.93 ± 0.37
82.5 K | 55.83 ± 0.38
82.55 K | 55.82 ± 0.38
84.31 K | 56.77 ± 0.38
84.59 K | 56.97 ± 0.38
86.12 K | 57.74 ± 0.39
88.91 K | 59.25 ± 0.4
91 K | 60.41 ± 0.44
92.82 K | 61.47 ± 0.45
94.65 K | 62.47 ± 0.45
